# In patent US20220387483A1, “USE OF IODIDE COMPOUNDS FOR THE TREATMENT AND PREVENTION OF CHEMOTHERAPY-ASSOCIATED CACHEXIA AND CARDIOTOXICITY” (FARADAY PHARMACEUTICALS, INC., priority 2019, published 2022):
# Experiments:
# [1] = system: Balb/c mice bearing subcutaneous CT26 tumors; assay: cancer cachexia model of Balb/c mice bearing subcutaneous CT26 tumors; assay type: in vivo; settings: for TNF-α level / creatine kinase level / serum LDL level / serum triglyceride level / % tumor grow inhibition (TGI) / serum VLDL level: vs vehicle control; for % tumor grow inhibition (TGI): day 20; for IL-6 level / kidney weight / lung weight / spleen weight / serum levels of TNF-α: test groups vs vehicle control; for IL-6 level: FIG. 10B; for kidney weight / lung weight / spleen weight / serum levels of TNF-α: significance; for serum levels of TNF-α: FIG. 10A; for body weight: throughout the experimental period
# Experimental: (§1) The anti-cachectic activity of iodide was evaluated in a cancer cachexia model of Balb/c mice bearing subcutaneous CT26 tumors. NaI was administered as FDY-5301, which is sodium iodide solubilized in water and balanced with sodium chloride to create an isotonic saline solution, with a pH between 7.0 and 9.5. As shown in the experimental design depicted in FIG. 1, when tumor volume reached 100 mm^3, the mice were either left untreated, or treated with one of the following: (i) vehicle control (0.5% CMC); (ii) NaI (FDY-5301) at 2 mg/kg i.v., QD×3 weeks; (iii) bucindolol at 2 mg/kg p.o., QD×3 weeks; or (iv) NaI (FDY-5301) at 40 ug/day slow release via Alzet osmotic pump (flow rate 0.11 uL/h) s.c. for 20 days. On day 14, 1 hour post dosing, blood samples were taken from three animals from groups 2, 3, and 5. On day 20, the animals were humanely euthanized and tumor and animal characteristics were measured. Prior to euthanasia, blood samples were collected for evaluation of biochemical parameters. Following euthanasia, tumor tissue and organs, muscles were collected and weighed.
# [2] = system: cardiotoxicity induced by doxorubicin; assay: cardiotoxicity induced by doxorubicin chemotherapy, ejection fraction via ultrasound; assay type: in vivo, C57Bl/6 mice
# Experimental: Male C57Bl/6 mice (˜10 weeks old) were given a 15 mg/kg i.p. bolus of doxorubicin to induce cardiotoxicity. Assessment of ejection fraction was performed via ultrasound at baseline (day 0, prior to any doxorubicin administration) and on days 3, 7, 14 or 28 days post administration. Dosing of placebo or FDY-5301 was done in a blinded fashion, as was all ultrasound analysis.
# A single 2 mg/kg i.v. bolus of FDY-5301 was administered by the retro orbital (r.o.) route and immediately followed by 15 mg/kg doxorubicin i.p. Placebo treated animals received saline. A Vevo® 2100 imaging system was used to assess cardiac function on days 0 (baseline), 7, 14, & 28.
# A single 2 mg/kg i.v. bolus of NaI was administered by the retro orbital (r.o.) route followed immediately by the s.c. implantation of an osmotic pump designed to deliver 2 mg/kg/day of NaI. The mice then received a 15 mg/kg doxorubicin i.p. bolus. Placebo treated animals received saline (and an osmotic pump filled with saline). Cardiac function was assessed on days 0 (baseline), 3, 7 & 14.
# [3] = system: Balb/c mice bearing subcutaneous CT26 tumors; assay: muscle histology and morphometry (muscle fiber area) in the CT26 cancer cachexia model; assay type: in vivo; settings: for muscle fiber area, gastrocnemius / muscle fiber area, soleus: histopathological images vs vehicle control; for muscle fiber area, tibialis anterior: vs vehicle control
# Experimental: as §1
# Morphometric evaluation of transverse sections of muscle fiber area (um2) was performed on tibialis anterior, gastrocnemius, and soleus muscles from the animals described in Example 1, for evaluation of anti-cachectic properties of FDY-5301 and bucindolol in the cancer cachexia model.
# [4] = slow release via Alzet osmotic pump
smiles,measurement,setting,value
"[I-].[Na+] [FDY-5301, sodium iodide]",TNF-α level,[1]; 2 mg/kg i.v.,non-significantly lower
same,creatine kinase level,[1]; 2 mg/kg i.v.,marginal decrease
same,serum LDL level,[1]; 2 mg/kg i.v.,non-significant change
same,serum triglyceride level,[1]; 2 mg/kg i.v.,marginally lower
same,% tumor grow inhibition (TGI),[1]; 40 ug/day slow release via Alzet osmotic pump s.c.,23%
same,% tumor grow inhibition (TGI),"[1]; 2 mg/kg i.v., QD×3 weeks",31%
same,TNF-α level,[1]; [4],marginally higher
same,serum LDL level,[1]; [4],significant increase
same,serum VLDL level,[1]; [4],significant decrease
same,serum triglyceride level,[1]; [4],significantly lower
same,creatine kinase level,[1]; slow release,marginal decrease
same,IL-6 level,[1],Non-significant
same,kidney weight,[1],Non-significant
same,lung weight,[1],Non-significant
same,spleen weight,[1],Non-significant
same,serum levels of TNF-α,[1],Non-Significant
same,body weight,"[1]; 2 mg/kg i.v., QD×3 weeks",progressive body weight gain
same,body weight,[1]; [4],progressive body weight gain
same,ejection fraction (EF),"[2]; 2 mg/kg i.v. bolus + s.c. osmotic pump 2 mg/kg/day, 15 mg/kg doxorubicin i.p., by day 14, vs placebo",stabilized EF
same,ejection fraction,"[2]; combined results of bolus and bolus + continuous studies, delivered at the time of chemotherapy",prevents a significant reduction in ejection fraction
same,change in ejection fraction from baseline,"[2]; single 2 mg/kg i.v. bolus then 15 mg/kg doxorubicin i.p., days 7, 14, 28, vs placebo",less of a reduction in change in ejection fraction from baseline
same,"muscle fiber area, gastrocnemius",[3]; 40 ug/day Alzet pump,increased muscle fiber area
same,"muscle fiber area, soleus",[3]; 40 ug/day Alzet pump,increased muscle fiber area
same,"muscle fiber area, tibialis anterior",[3]; 40 ug/day slow release via Alzet osmotic pump,significant increase
same,"muscle fiber area, tibialis anterior","[3]; 40 ug/day slow release via Alzet osmotic pump, listed as FDY-3501",increased muscle fiber area
same,"muscle fiber area, gastrocnemius",[3]; 2 mg/kg i.v.,increased muscle fiber area
same,"muscle fiber area, soleus",[3]; 2 mg/kg i.v.,increased muscle fiber area
same,"muscle fiber area, tibialis anterior",[3]; 2 mg/kg i.v.,Non-significant
same,"muscle fiber area, tibialis anterior","[3]; 2 mg/kg i.v., listed as FDY-3501",increased muscle fiber area
"CC(C)(Cc1c[nH]c2ccccc12)NCC(O)COc1ccccc1C#N (stereo not shown) [bucindolol, reference compound]",TNF-α level,[1]; 2 mg/kg p.o.,marginally higher
same,creatine kinase level,[1]; 2 mg/kg p.o.,higher level
same,serum LDL level,[1]; 2 mg/kg p.o.,non-significant change
same,serum VLDL level,[1]; 2 mg/kg p.o.,significant decrease
same,serum triglyceride level,[1]; bucindolol 2 mg/kg p.o.,significantly lower
same,% tumor grow inhibition (TGI),"[1]; 2 mg/kg p.o., QD×3 weeks",24%
same,IL-6 level,[1],Non-significant
same,kidney weight,[1],Non-significant
same,lung weight,[1],Non-significant
same,spleen weight,[1],Non-significant
same,serum levels of TNF-α,[1],Non-Significant
same,body weight,"[1]; 2 mg/kg p.o., QD×3 weeks",progressive body weight gain
same,"muscle fiber area, gastrocnemius",[3]; 2 mg/kg p.o.,increased muscle fiber area
same,"muscle fiber area, soleus",[3]; 2 mg/kg p.o.,increased muscle fiber area
